# Laboratory results from paper PMC10403574, “Discovery of a pyrrole-pyridinimidazole derivative as novel SIRT6 inhibitor for sensitizing pancreatic cancer to gemcitabine” (Cell Death & Disease, 2023).
# Columns and labels:
# SIRT6 [1] = target: T1, SIRT6 (Homo sapiens, UniProt Q8N6T7); test: Fluor-De-Lys (FDL) SIRT6 deacetylation assay; format: biochemical; parameters: The human full-length SIRT6 gene was inserted into the prokaryotic expression vector (pET-28a (+)); inferred from the pET-28a(+) vector, Ni-NTA purification and Ni-NTA biosensor loading); made in house; host or cells: Escherichia coli BL21 (DE3); conditions: fixed concentration of 25 μM, RHKK-Ac-AMC, NI = no inhibition; for inhibition at 25 µM: read-out: Inhibition rate (%)
# T1 sequence (Q8N6T7 whole entry): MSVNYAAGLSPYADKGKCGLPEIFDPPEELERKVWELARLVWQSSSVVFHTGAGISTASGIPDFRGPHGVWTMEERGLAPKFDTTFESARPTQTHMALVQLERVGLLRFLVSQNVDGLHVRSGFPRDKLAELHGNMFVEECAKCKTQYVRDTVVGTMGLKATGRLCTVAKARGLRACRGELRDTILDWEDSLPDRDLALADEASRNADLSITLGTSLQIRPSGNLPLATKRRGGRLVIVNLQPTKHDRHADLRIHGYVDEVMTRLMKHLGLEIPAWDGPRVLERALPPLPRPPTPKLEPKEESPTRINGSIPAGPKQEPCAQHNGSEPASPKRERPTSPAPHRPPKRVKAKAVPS
# Experimental: The human full-length SIRT6 gene was inserted into the prokaryotic expression vector (pET-28a (+)). The verified recombinant plasmid was transformed into Escherichia coli BL21 (DE3) expression strain and cultured overnight at 37 °C on LB plates supplemented with 50 μg/mL kanamycin. Single colonies were inoculated in fluid kanamycin-containing LB mediums. It was shaken at 160 rpm for 16 h at 37 °C and transferred to kanamycin-containing LB medium at a ratio of 1:100. It was shaken at 160 rpm at 37 °C until the OD600 reached 0.6. The Isopropyl-β-d-thiogalactopyranoside was added to make the final concentration of solution 0.5 mmol/L, cultured for 15 °C and 160 rpm for 24 h.
# Bacterial liquid was harvested at 12,000 rpm at 4 °C for 20 min, and then re-suspended in Lysis buffer (20 mmol/L Hepes pH 7.5, 20 mmol/L imidazole, 5% Glycerol, 500 mmol/L NaCl). Cell pellets were disrupted by high-pressure crusher (JNBIO, Guangzhou China) and centrifuged (4 °C, 12000 rpm, for 20 min). Supernatant was collected and purified by FPLC with a 1 mL Ni–NTA Sepharose column (GE Healthcare, Stamford, USA). The SIRT6 protein was eluted at containing 50 mM, 100 mM, 150 mM, 200 mM, and 500 mM imidazole in elution buffer. The purified SIRT6 protein was dialyzed in dialysis buffer (50 mM Tris-HCl, 137 mM NaCl, 2.7 mM KCl, 1 mM MgCl2). The purified SIRT6 protein was analyzed by SDS-PAGE.
# Fluor-De-Lys (FDL) assays were used for the examination of the deacetylation activities of sirtuins as described previously. For the detection of SIRT6 activity, the 50-μL reaction mixture contained 5 μM SIRT6, 2.5 mM NAD^+ (β-Nicotinamide adenine dinucleotide hydrate, Sigma, N1636), 75 μM RHKK-Ac-AMC (GL Biochem, Shanghai), compounds/DMSO, and assay buffer. The reactions were incubated at 37 °C for 2 h, added 50 μL stop solution (40 mM nicotinamide, 6 mg/mL trypsin) at 25 °C for 30 min. Fluorescence intensity was measured at an excitation wavelength of 360 nm and an emission wavelength of 460 nm. IC50 values were calculated in GraphPad Prism version 8.00.
# SIRT6 [2] = target: T1, SIRT6; parameters: endogenous in cells; host or cells: HeLa; conditions: cited from earlier work
# BXPC-3 xenografts = test: BXPC-3 tumor xenograft in nude mice; format: in vivo, BALB/c nude mice; conditions: gemcitabine 10 mg/kg i.p. once every 2 days for 4 weeks
# Experimental: Female BALB/c nude mice (14 ± 2 g, 4 weeks old) were purchase. About 2 × 10^6 of BXPC-3 cells were inoculated into nude mouse flanks. When the tumor volume reached approximately 100 mm^3, mice were randomly divided into four groups with six mice per group before treatment and then treated with vehicle, 8a (20 mg/kg), gemcitabine (10 mg/kg) and their combination every 2 days. Tumor volumes and body weight were measured every 3 days, and use the formula to calculate the tumor volume: V = (L × W × W)/2 (V, tumor volume; L, length; and W, width). Mice were sacrificed and tumor tissues were removed. Tumor tissues were fixed with paraformaldehyde (4%) and embedded with paraffin.
# To further confirm whether 8a can enhance the antitumor effects of gemcitabine in vivo, the BXPC-3 PDAC xenografts were used. The mice with tumors received intraperitoneal injection of compound 8a (20 mg/kg), gemcitabine (10 mg/kg), or their combination once every 2 days for 4 weeks. Tumor volumes and body weight of mice were monitored every 3 days.
# BXPC-3 cells = test: γ-H2AX DNA damage (immunofluorescence, western blot); format: cell-based; conditions: BXPC-3, 10 nM gemcitabine, 6.25 μM 8a or combination, 24 h
# Experimental: Cells were harvested and lysed in a lysis buffer (solarbio, R0010) supplementing 1 mM PMSF and protease inhibitor (TargetMol, USA). […] Then, the membranes were detected by Tanon 5200 (Tanon, Beijing, China). […]
Compound,Inhibition rate (%) (SIRT6 [1]),other results
Cn1c(-c2nccc3[nH]cnc23)cc(Br)c1Br [Compound 1c],,inhibition at 25 µM (SIRT6 [1]): 3.7%
Brc1cc(-c2nccc3[nH]cnc23)[nH]c1Br.O=C(O)C(F)(F)F [Compound 2a],4.1,
O=C(O)C(F)(F)F.O=C1c2ccccc2C(=O)N1CCCCCCn1cnc2c(-c3cc(Br)c(Br)[nH]3)nccc21 [Compound 10c],6.4,
BrCCCCCCn1c(-c2nccc3c2ncn3CCCCCCBr)cc(Br)c1Br [Compound 11a],,inhibition at 25 µM (SIRT6 [1]): < 0%
O=C(Nc1ccc(O)c(C(=O)O)c1)c1cccc(NC(=O)c2ccco2)c1 [OSS_128167],,IC50 (SIRT6 [2]): 89 µM
Nc1ccn([C@@H]2O[C@H](CO)[C@@H](O)C2(F)F)c(=O)n1 [gemcitabine],,tumor mass inhibition (BXPC-3 xenografts): 30.1%; γ-H2AX foci (BXPC-3 cells): can cause γ-H2AX foci

# More lines, main results first:
Inhibition rate (%) (SIRT6 [1]),Compound,other results
5.3,BrCCCCCCn1cnc2c(-c3cc(Br)c(Br)[nH]3)nccc21.O=C(O)C(F)(F)F [Compound 4a],
16.7,Brc1cc(-c2nccc3c2ncn3CCCCCCN2CCCCC2)[nH]c1Br.O=C(O)C(F)(F)F [Compound 10d],
23.8,Brc1cc(-c2nccc3c2ncn3CCCCCCN2CCOCC2)n(CCCCCCN2CCOCC2)c1Br [Compound 11b],
